Patent publication US12492173B2, “Herbicidal substituted N-tetrazolyl aryl carboxamides” (Bayer Aktiengesellschaft, priority 2019, dated 2025)

Key:
Assay type in all cases: in vivo
Viola tricolor = assay: Pre-emergence herbicidal action, VIOTR; set-up: key to Herbicidal action against VIOTR: % activity: 100 = plants have died, 0 = like control plants; details: for herbicidal activity VIOTR: dosage 320 g/ha, scored visually after 3 weeks vs untreated controls (100% = plants have died)
Method in brief: (§1)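 Herbicidal activity is expressed in percent, scored by eye after a 3-week greenhouse period, with 0% matching untreated plants and 100% meaning death. Compounds, as wettable powders or emulsion concentrates, are applied pre-emergence to the covering soil.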

Polygonum convolvulus = assay: Pre-emergence herbicidal action, POLCO; details: dosage 320 g/ha, scored visually after 3 weeks vs untreated controls (100% = plants have died)
Method in brief: as §1

Setaria viridis = assay: Post-emergence herbicidal action, SETVI; set-up: key: % herbicidal action vs untreated; 100 = plants died, 0 = like control
Method in brief: (§2)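 Greenhouse post-emergence test: weeds sown in sandy loam were sprayed once at one leaf, 2 to 3 weeks from sowing, with aqueous WP or EC preparations carrying 0.2% wetting agent. Effect is scored visually after about 3 weeks.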

Matricaria inodora = assay: Pre-emergence herbicidal action, MATIN; set-up: key to Herbicidal action against MATIN: % activity: 100 = plants have died, 0 = like control plants; details: for herbicidal activity MATIN: dosage 320 g/ha, scored visually after 3 weeks vs untreated controls (100% = plants have died)
Method in brief: as §1

Pharbitis purpurea = assay: Post-emergence herbicidal action, PHBPU
Method in brief: as §2

Avena fatua = assay: Post-emergence herbicidal action, AVEFA; set-up: key: % herbicidal action vs untreated; 100 = plants died, 0 = like control
Method in brief: as §2

[1] = comparative experiment, 20 g of a.i./ha

Row | SMILES | herbicidal activity VIOTR (Viola tricolor) [%] | herbicidal activity POLCO (Polygonum convolvulus) [%] | herbicidal action SETVI (Setaria viridis; post-emergence, dosage 80 g/ha) [%] | herbicidal activity MATIN (Matricaria inodora) [%] | herbicidal action PHBPU (Pharbitis purpurea; post-emergence, dosage 80 g/ha) [%] | herbicidal action AVEFA (Avena fatua; post-emergence, dosage 80 g/ha) [%] | herbicidal action SETVI (Setaria viridis; Dosage 80 g/ha) | herbicidal action PHBPU (Pharbitis purpurea; Dosage 80 g/ha) | herbicidal action AVEFA (Avena fatua; Dosage 80 g/ha) | Herbicidal action against VIOTR (Viola tricolor; [1]) | Herbicidal action against SETVI (Setaria viridis; comparative experiment, post-emergence, 5 g of a.i./ha) | Herbicidal action against MATIN (Matricaria inodora; [1])
1 | CCCn1nnnc1NC(=O)c1ccc(C(F)(F)F)c(C[S+](C)[O-])c1SC (stereo not drawn) [Example 3-162] | 100 | 100 | 100 | 100 | 90 | 90 | – | – | – | – | – | –
2 | CCn1nnnc1NC(=O)c1ccc(C(F)(F)F)c(C[S+]([O-])CC2CC2)c1Cl (stereo not drawn) [Example 2-315] | 100 | 90 | – | 100 | – | – | 100 | 100 | 90 | – | – | –
3 | Cn1nnnc1NC(=O)c1ccc(C(F)(F)F)c(C[S+]([O-])C2CC2)c1Cl (racemic) [Example 1-303] | 100 | 100 | 100 | 100 | 100 | 100 | – | – | – | – | – | –
4 | CCn1nnnc1NC(=O)c1ccc(C(F)(F)F)c(C[S+](C)[O-])c1SC (stereo not drawn) [Example 2-162] | 100 | 100 | – | 100 | – | – | 90 | 90 | 100 | – | – | –
5 | CSCc1c(C(F)(F)F)ccc(C(=O)Nc2nnnn2C)c1C [Example 1-83] | 100 | 100 | 100 | 100 | 100 | 90 | – | – | – | – | – | –
6 | Cn1nnnc1NC(=O)c1ccc(C(F)(F)F)c(CSCC2CC2)c1Cl [Example 1-314] | 100 | 100 | 100 | 100 | 100 | 100 | – | – | – | – | – | –
7 | CCSCc1c(C(F)(F)F)ccc(C(=O)Nc2nnnn2C)c1SCC [Example 1-182] | 100 | 100 | – | 100 | – | – | 90 | 90 | 80 | 80 | 70 | 80
